# Measured values published in ChEMBL document CHEMBL6074639, “MALT1 Inhibitors for Treating Cancer and Immunological Diseases” (ACS Med Chem Lett, 2024).
# Molecular target: T1, Mucosa-associated lymphoid tissue lymphoma translocation protein 1 (Homo sapiens, UniProt Q9UDY8)
# T1 sequence (Q9UDY8 whole entry): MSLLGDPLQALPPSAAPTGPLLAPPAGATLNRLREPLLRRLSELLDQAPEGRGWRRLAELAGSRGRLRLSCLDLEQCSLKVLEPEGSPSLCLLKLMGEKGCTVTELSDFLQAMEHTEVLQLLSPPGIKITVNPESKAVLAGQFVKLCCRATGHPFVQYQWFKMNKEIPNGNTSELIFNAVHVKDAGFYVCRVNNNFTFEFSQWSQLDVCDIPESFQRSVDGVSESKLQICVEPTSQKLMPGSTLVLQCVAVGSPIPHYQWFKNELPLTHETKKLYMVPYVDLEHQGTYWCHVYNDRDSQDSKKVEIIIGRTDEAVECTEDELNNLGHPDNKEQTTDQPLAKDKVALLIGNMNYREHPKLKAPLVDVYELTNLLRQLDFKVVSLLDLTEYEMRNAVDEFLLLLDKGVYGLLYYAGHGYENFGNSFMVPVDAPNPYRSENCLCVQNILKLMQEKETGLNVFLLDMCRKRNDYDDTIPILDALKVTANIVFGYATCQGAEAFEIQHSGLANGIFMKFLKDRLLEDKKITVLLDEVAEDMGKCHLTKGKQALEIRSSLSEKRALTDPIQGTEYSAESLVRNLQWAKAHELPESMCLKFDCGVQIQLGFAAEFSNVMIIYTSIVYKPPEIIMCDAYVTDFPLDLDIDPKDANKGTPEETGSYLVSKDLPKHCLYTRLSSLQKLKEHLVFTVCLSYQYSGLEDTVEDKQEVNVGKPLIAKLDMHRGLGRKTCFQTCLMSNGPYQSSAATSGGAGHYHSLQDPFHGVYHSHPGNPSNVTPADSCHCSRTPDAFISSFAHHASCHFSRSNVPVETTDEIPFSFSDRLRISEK
# Assay: Inhibition of full length his-tagged MALT1 (1 to 824 residues) (unknown origin) expressed in Baculovirus infected in insect cells using tetrapeptide-[…]-AMC as fluorescent substrate preincubated for 50 mins followed by substrate addition and measured after 4 hrs by fluorescence based analysis
row,Structure (SMILES),IC50
1,C[C@@]1(C(F)(F)F)CN(c2ccc([C@H]3C(F)(F)[C@]3(C)C(=O)NCC(N)=O)cc2)c2cnc3cc(Cl)nn3c21,5 nM
2,C[C@@]1(C(F)(F)F)CN(c2ccc([C@H]3C(F)(F)[C@]3(C)C(=O)NCC3CNC(=O)C3)cc2)c2cnc3cc(Cl)nn3c21 (stereo partly specified),6 nM
3,C[C@@]1(C(F)(F)F)CN(c2ccc([C@H]3C(F)(F)[C@]3(C)C(=O)N[C@H]3C[C@@H](C[S+](C)(=N)[O-])C3)cc2)c2cnc3cc(Cl)nn3c21 (stereo partly specified),6 nM
4,C[C@@]1(C(F)(F)F)CN(c2ccc([C@H]3C(F)(F)[C@]3(CO)C(N)=O)cc2)c2cnc3cc(Cl)nn3c21,5 nM
5,CC(C)(C)NC(=O)[C@]1(C)[C@@H](c2ccc(N3C[C@@](C)(C(F)(F)F)c4c3cnc3cc(Cl)nn43)cc2)C1(F)F,6 nM
6,C[C@@]1(C(F)(F)F)CN(c2ccc([C@H]3C(F)(F)[C@]3(C)C(=O)NCCS(N)(=O)=O)cc2)c2cnc3cc(Cl)nn3c21,6 nM
